Laboratory results reported in patent US8871680B2, “Herbicidal compositions comprising 4-amino-3-chloro-5-fluoro-6-(4-chloro-2-fluoro-3-methoxyphenyl) pyridine-2-carboxylic acid or a derivative thereof and a di-methoxy-pyrimidine and derivatives thereof” (Dow AgroSciences LLC, priority 2012, dated 2014).

Legend:
[1] = tested on: ECHCG; test: Postemergence foliar-applied weed control, direct seeded rice (greenhouse); type: in vivo, Echinochloa crusgalli (L.) Beauv.
Source text: (§1) Seeds or nutlets of the desired test plant species were planted in a soil matrix prepared by mixing a loam or sandy loam soil (e.g., 28.6 percent silt, 18.8 percent clay, and 52.6 percent sand, with a pH of about 5.8 and an organic matter content of about 1.8 percent) and calcareous grit in an 80 to 20 ratio. The soil matrix was contained in plastic pots with a volume of 1 quart and a surface area of 83.6 square centimeters (cm^2). When required to ensure good germination and healthy plants, a fungicide treatment and/or other chemical or physical treatment was applied. The plants were grown for 8-22 days in a greenhouse with an approximate 14 hr photoperiod which was maintained at about 29° C. during the day and 26° C. during the night. Nutrients (Peters Excel® 15-5-15 5-Ca 2-Mg and iron chelate) were applied in the irrigation solution as needed and water was added on a regular basis. Supplemental lighting was provided with overhead metal halide 1000-Watt lamps as necessary. The plants were employed for testing when they reached the first through fourth true leaf stage. […]
(§2) Treatment requirements were calculated based upon the rates being tested, the concentration of active ingredient or acid equivalent in the formulation, and a 12 mL application volume at a rate of 187 L/ha.
(§3) For treatments comprised of formulated compounds, measured amounts of compounds were placed individually in 25 mL glass vials and diluted in a volume of 1.25% (v/v) Agri-Dex® crop oil concentrated to obtain 12× stock solutions. […]
(§4) For treatments comprised of formulated and technical compounds, weighed amounts of the technical materials were placed individually in 25 mL glass vials and dissolved in a volume of 97:3 v/v acetone/DMSO to obtain 12× stock solutions, and measured amounts of the formulated compounds were placed individually in 25 mL glass vials and diluted in a volume of 1.5% (v/v) crop oil concentrate or water to obtain 12× stock solutions. […]

[2] = tested on: FIMMI; test: In-water applied weed control, transplanted paddy rice (greenhouse); type: in vivo, Fimbristylis miliacea (L.) Vahl
Experimental: (§5) Weed seeds or nutlets of the desired test plant species were planted in puddled soil (mud) prepared by mixing a shredded, non-sterilized mineral soil (50.5 percent silt, 25.5 percent clay, and 24 percent sand, with a pH of about 7.6 and an organic matter content of about 2.9 percent) and water at a 1:1 volumetric ratio. The prepared mud was dispensed in 365 mL aliquots into 16-ounce (oz.) non-perforated plastic pots with a surface area of 86.59 square centimeters (cm^2) leaving a headspace of 3 centimeters (cm) in each pot. Mud was allowed to dry overnight prior to planting or transplanting. Rice seeds were planted in Sun Gro MetroMix® 306 planting mixture, which typically has a pH of 6.0 to 6.8 and an organic matter content of about 30 percent, in plastic plug trays. Seedlings at the second or third leaf stage of growth were transplanted into 860 mL of mud contained in 32-oz. non-perforated plastic pots with a surface area of 86.59 cm^2 4 days prior to herbicide application. The paddy was created by filling the headspace of the pots with 2.5 to 3 cm of water. When required to ensure good germination and healthy plants, a fungicide treatment and/or other chemical or physical treatment was applied. The plants were grown for 4-22 days in a greenhouse with an approximate 14 hr photoperiod which was maintained at about 29′C during the day and 26° C. during the night. Nutrients were added as Osmocote® (19:6:12, N:P:K+minor nutrients) at 2 g per 16-oz. pot and 4 g per 32-oz. pot. Water was added on a regular basis to maintain the paddy flood, and supplemental lighting was provided with overhead metal halide 1000-Watt lamps as necessary. The plants were employed for testing when they reached the first through fourth true leaf stage.
(§6) Treatments consisted of the acid or esters of 4-amino-3-chloro-5-fluoro-6-(4-chloro-2-fluoro-3-methoxy-phenyl)pyridine-2-carboxylic acid (compound A) each formulated as an SC and various herbicidal components alone and in combination. Forms of compound A were applied on an acid equivalent basis.
(§7) Other herbicidal components were applied on an active ingredient basis and included the dimethoxy-pyrimidine acid acetolactate synthase (ALS)-inhibiting herbicides bispyribac-sodium formulated as Regiment® 80 WP, pyriminobac-methyl formulated as Hie Clean®, and pyriftalid (technical grade material).
(§8) Treatment requirements for each compound or herbicidal component were calculated based upon the rates being tested, the concentration of active ingredient or acid equivalent in the formulation, an application volume of 2 mL per component per pot, and an application area of 86.59 cm^2 per pot.
(§9) For formulated compounds, a measured amount was placed in an individual 100 or 200 mL glass vial and was dissolved in a volume of 1.25% (v/v) Agri-Dex® crop oil concentrate to obtain application solutions.
(§10) For technical grade compounds, a weighed amount was placed in an individual 100 to 200 mL glass vial and was dissolved in a volume of acetone to obtain concentrated stock solutions. […] The concentrated stock solutions obtained were diluted with an equivalent volume of an aqueous mixture containing 2.5% (v/v) crop oil concentrate so that the final application solutions contained 1.25% (v/v) crop oil concentrate.
(§11) Applications were made by injecting with a pipetter appropriate amounts of the application solutions, individually and sequentially, into the aqueous layer of the paddy.
(§12) Control plants were treated in the same manner with the solvent blank. Applications were made so that all treated plant material received the same concentrations of acetone and crop oil concentrate.
(§13) The treated plants and control plants were placed in a greenhouse as described above and water was added as needed to maintain a paddy flood. […]

[3] = tested on: BRAPP; test: Postemergence foliar-applied weed control, direct seeded rice (greenhouse); type: in vivo, Brachiaria platyphylla (Griseb.) Nash
Source text: as §1, §2, §3, §4

[4] = tested on: CYPRO; test: In-water applied weed control, transplanted paddy rice (greenhouse); type: in vivo, Cyperus rotundus L.
Experimental: as §5, §6, §7, §8, §9, §10, §11, §12, §13

[5] = tested on: LEFCH; test: Postemergence foliar-applied weed control, direct seeded rice (greenhouse); type: in vivo, Leptochloa chinensis (L.) Nees
Source text: (§14) Seeds or nutlets of the desired test plant species were planted in a soil matrix prepared by mixing a loam or sandy loam soil (e.g., 28.6 percent silt, 18.8 percent clay, and 52.6 percent sand, with a pH of about 5.8 and an organic matter content of about 1.8 percent) and calcareous grit in an 80 to 20 ratio. The soil matrix was contained in plastic pots with a volume of 1 quart and a surface area of 83.6 square centimeters (cm^2). When required to ensure good germination and healthy plants, a fungicide treatment and/or other chemical or physical treatment was applied. The plants were grown for 8-22 days in a greenhouse with an approximate 14 hr photoperiod which was maintained at about 29° C. during the day and 26° C. during the night. Nutrients (Peters Excel® 15-5-15 5-Ca 2-Mg and iron chelate) were applied in the irrigation solution as needed and water was added on a regular basis. Supplemental lighting was provided with overhead metal halide 1000-Watt lamps as necessary. The plants were employed for testing when they reached the first through fourth true leaf stage.
as §6, with “(Compound A),” for “(compound A)”, “SC (suspension concentrate),” for “SC”
as §7, with “80WP, pyribenzoxim (technical grade material),” for “80 WP,”, “Hie-Clean® 1.2% GR dissolved in water,” for “Hie Clean®,”
as §2
(§15) For treatments comprised of formulated compounds, measured amounts of compounds were placed individually in 25 mL glass vials and diluted in a volume of 1.25% (v/v) Agri-Dex® crop oil concentrated to obtain 12× stock solutions. […] Application solutions were prepared by adding an appropriate amount of each stock solution (e.g., 1 mL) and diluted to the appropriate final concentrations with the addition of 10 mL of an aqueous mixture of 1.25% (v/v) crop oil concentrate so that the final spray solutions contained 1.25+/−0.005% (v/v) crop oil concentrate.
(§16) For treatments comprised of technical compounds, weighed amounts can be placed individually in 25 mL glass vials and dissolved in a volume of 97:3 v/v acetone/DMSO to obtain 12× stock solutions. […] Application solutions can be prepared by adding an appropriate amount of each stock solution (e.g., 1 mL) and diluted to the appropriate final concentrations with the addition of 10 mL of an aqueous mixture of 1.5% (v/v) crop oil concentrate so that the final spray solutions contain 1.25% (v/v) crop oil concentrate. When technical materials are used, the concentrated stock solutions can be added to the spray solutions so that the final acetone and DMSO concentrations of the application solutions are 16.2% and 0.5%, respectively.
as §4

[6] = tested on: SCPMA; test: In-water applied weed control, transplanted paddy rice (greenhouse); type: in vivo, Bolboschoenus maritimus (L.) Palla
Experimental: as §5, §6, §7, §8, §9, §10, §11, §12, §13

[7] = tested on: IPOHE; test: Postemergence foliar-applied weed control, direct seeded rice (greenhouse); type: in vivo, Ipomoea hederacea Jacq.
Source text: as §14
as §6, with “(Compound A),” for “(compound A)”, “SC (suspension concentrate),” for “SC”
as §7, with “80WP, pyribenzoxim (technical grade material),” for “80 WP,”, “Hie-Clean® 1.2% GR dissolved in water,” for “Hie Clean®,”
as §2, §15, §16, §4

## COc1cc(OC)nc(Oc2cccc(Oc3nc(OC)cc(OC)n3)c2C(=O)ON=C(c2ccccc2)c2ccccc2)n1 [Pyribenzoxim, diphenylmethanone O-[2,6-bis[(4,6-dimethoxy-2-pyrimidinyl)oxy]benzoyl]oxime, reference compound]
[1]; 70 gai/ha
  Visual Weed Control (%) - 20 DAA ECHCG Obs: 85%

## COc1cc(OC)nc(Sc2cccc3c2C(=O)OC3C)n1 (centres unmarked) [Pyriftalid, 7-[(4,6-dimethoxy-2-pyrimidinyl)thio]-3-methyl-1 (3H)-isobenzofuranone, reference compound]
[2]; 45 gai/ha
  Visual Weed Control (%)-21 DAA FIMMI Obs: 50%
[2]; 90 gai/ha
  Visual Weed Control (%)-21 DAA FIMMI Obs: 30%
[3]; 45 gai/ha
  Visual Weed Control (%)-22 DAA BRAPP Obs: 0%
[3]; 90 gai/ha
  Visual Weed Control (%)-22 DAA BRAPP Obs: 0%
[4]; 45 gai/ha, Table 12
  Visual Weed Control (%)-21 DAA CYPRO Obs: 0%
[4]; 45 gai/ha, Table 13
  Visual Weed Control (%)-21 DAA CYPRO Obs: 0%
[4]; 90 gai/ha, Table 12
  Visual Weed Control (%)-21 DAA CYPRO Obs: 0%
[4]; 90 gai/ha, Table 13
  Visual Weed Control (%)-21 DAA CYPRO Obs: 0%
[5]; 45 gai/ha
  Visual Weed Control (%)-22 DAA LEFCH Obs: 0%
[5]; 90 gai/ha
  Visual Weed Control (%)-22 DAA LEFCH Obs: 0%

## COc1c(Cl)ccc(-c2nc(C(=O)OCc3ccccc3)c(Cl)c(N)c2F)c1F [Compound A Benzyl Ester]
[6]; 4.38 gae/ha
  Visual Weed Control (%)-21 DAA SCPMA Obs: 0%
[6]; 8.75 gae/ha
  Visual Weed Control (%)-21 DAA SCPMA Obs: 0%
[6]; 35 gae/ha
  Visual Weed Control (%)-20 DAA SCPMA Obs: 0%
[6]; 35 gae/ha, Table 11
  Visual Weed Control (%)-20 DAA SCPMA Obs: 0%
[6]; 70 gae/ha
  Visual Weed Control (%)-20 DAA SCPMA Obs: 0%
[2]; 4.38 gae/ha
  Visual Weed Control (%)-21 DAA FIMMI Obs: 20%
[7]; 4.38 gae/ha
  Visual Weed Control (%)-24 DAA IPOHE Obs: 10%
[7]; 8.75 gae/ha
  Visual Weed Control (%)-24 DAA IPOHE Obs: 15%
[7]; 17.5 gae/ha
  Visual Weed Control (%)-21 DAA IPOHE Obs: 43%
  Visual Weed Control (%)-24 DAA IPOHE Obs: 30%
[1]; 8 gae/ha
  Visual Weed Control (%) - 20 DAA ECHCG Obs: 75%
[1]; 16 gae/ha
  Visual Weed Control (%) - 20 DAA ECHCG Obs: 85%
[4]; 4.38 gae/ha
  Visual Weed Control (%)-20 DAA CYPRO Obs: 50%
[4]; 4.38 gae/ha, Table 11
  Visual Weed Control (%)-21 DAA CYPRO Obs: 0%
[4]; 4.38 gae/ha, Table 13
  Visual Weed Control (%)-21 DAA CYPRO Obs: 30%
[4]; 8.75 gae/ha, Table 11
  Visual Weed Control (%)-21 DAA CYPRO Obs: 20%
[4]; 8.75 gae/ha, Table 13
  Visual Weed Control (%)-21 DAA CYPRO Obs: 60%
[4]; 17.5 gae/ha
  Visual Weed Control (%)-21 DAA CYPRO Obs: 10%
[5]; 4.38 gae/ha
  Visual Weed Control (%)-24 DAA LEFCH Obs: 0%
[5]; 8.75 gae/ha
  Visual Weed Control (%)-20 DAA LEFCH Obs: 10%
  Visual Weed Control (%)-24 DAA LEFCH Obs: 0%
[5]; 17.5 gae/ha
  Visual Weed Control (%)-20 DAA LEFCH Obs: 20%
  Visual Weed Control (%)-22 DAA LEFCH Obs: 25%
  Visual Weed Control (%)-24 DAA LEFCH Obs: 10%
